In patent publication US9351982B2, “Krill oil and reacted astaxanthin composition and associated method” (U.S. Nutraceuticals, LLC, priority 2009, dated 2016):

Key:
[1] = test system: pro-oxidant activity of Vioxx; conditions: in vitro; cited from earlier work
[2] = cited from earlier work
[3] = test system: LDL cholesterol oxidation; conditions: cited from earlier work
lipid peroxidation = conditions: relative to alpha-tocopherol; in vitro and in vivo studies; cited from earlier work
[4] = Stability of carotenoids blended with krill oil, UV analysis; assay type: physicochemical
Excerpt: Testing has determined that astaxanthin added to krill oil results in an unstable product with respect to recoverable astaxanthin by HPLC analysis. A chemical reaction most likely takes place between krill oil and at least astaxanthin in such mixtures. […] Had UV alone been used to determine product stability the decrease in recoverable astaxanthin over time would not have been observed. The test results, tables and charts of FIGS. 2-6 show the decrease in recoverable astaxanthin over time.
FIG. 2 is a chart showing data of astaxanthin at 13 days post formulation reacting with krill oil, but essentially neither lutein nor zeaxanthin. Astaxanthin is a keto-alcohol while lutein and zeaxanthin are alcohols and this can possibly make some difference. It should also be understood that the krill oil and “reacted” carotenoids, such as astaxanthin, and possibly zeaxanthin and lutein, lose their ability to be recovered over time from the mixture but can still be quantitated by ultraviolet (UV) analysis. For example, the chromophores of the carotenoids are not destroyed when the reaction takes place over time and can be used to develop a number of products useful for cardiovascular applications, joint health care applications, eye care and other diseases.
Referring now to the chart in FIG. 2, there are shown various samples and explanation. […]

[5] = test system: C-Reactive Protein (C-RP); conditions: cited from earlier work
lens epithelial cells = conditions: in vitro, at umol/L concentrations; cited from earlier work
[6] = eight weeks of supplementation at 6 mg per day; cited from earlier work
[7] = cited from earlier work; remark: listed apart in the source

Compound: CC1=C(/C=C/C(C)=C/C=C/C(C)=C/C=C/C=C(C)/C=C/C=C(C)/C=C/C2=C(C)C(=O)[C@@H](O)CC2(C)C)C(C)(C)C[C@H](O)C1=O [astaxanthin]
- negation of pro-oxidant activity of Vioxx [1]: negate the pro-oxidant activity of Vioxx
- potency in scavenging oxygen free radicals, times more potent than alpha-tocopherol ([2]; relative to alpha-tocopherol): 14 times
- potency in scavenging oxygen free radicals, times more potent than ascorbic acid (Vitamin C) ([2]; relative to ascorbic acid): 65 times
- potency in scavenging oxygen free radicals, times more potent than beta-carotene ([2]; relative to beta-carotene): 54 times
- protection of LDL cholesterol against induced in vitro oxidation ([3]; 3.6 mg per day for two weeks): protects LDL cholesterol against induced in vitro oxidation
- reduction of LDL cholesterol oxidation ([3]; 4 mg per day for two weeks): 26%
- mean effective concentration which inhibits lipid peroxidation, times lower than that of alpha-tocopherol (lipid peroxidation): 500 times
- UV quantification of the amount of astaxanthin added to blended product [4]: ~100%
- decrease in C-reactive protein scores ([5]; 4 mg for eight weeks): 21%
- drop in serum C-RP levels ([5]; human subjects with high risk levels of C-RP, three months of treatment): 43%
- suppression of UVB induced lipid per-oxidative mediated cell damage (lens epithelial cells): suppresses UVB induced lipid per-oxidative mediated cell damage
- negative effect in healthy adults [6]: no negative effect
- potency in quenching singlet oxygen, times more potent than alpha-tocopherol ([7]; relative to alpha-tocopherol): 550 times
- potency in quenching singlet oxygen, times more potent than beta-carotene ([7]; relative to beta-carotene): 11 times
- potency in quenching singlet oxygen, times more potent than lutein ([7]; relative to lutein): 27.5 times
